Data on twelve compounds can be found in patent US20170174633A1 (RESEARCH TRIANGLE INSTITUTE, priority 2014, published 2017).

Data set [1] addresses T1, rNTS2 receptor (Rattus norvegicus, UniProt Q63384).
T1 construct: expressed in transfected cells
T1 sequence (Q63384 1-416): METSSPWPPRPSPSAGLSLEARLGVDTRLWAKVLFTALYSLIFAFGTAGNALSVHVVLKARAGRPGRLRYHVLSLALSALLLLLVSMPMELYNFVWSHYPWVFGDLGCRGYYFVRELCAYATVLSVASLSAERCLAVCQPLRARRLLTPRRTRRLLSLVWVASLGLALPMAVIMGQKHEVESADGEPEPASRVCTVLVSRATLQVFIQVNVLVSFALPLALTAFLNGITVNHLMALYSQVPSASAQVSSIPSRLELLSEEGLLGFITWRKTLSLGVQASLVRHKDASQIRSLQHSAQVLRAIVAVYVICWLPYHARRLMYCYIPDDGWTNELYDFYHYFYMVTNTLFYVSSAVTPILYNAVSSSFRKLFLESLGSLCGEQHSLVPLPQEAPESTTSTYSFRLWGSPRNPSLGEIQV
The data set can be described thus: 125I-NT competitive binding assay, whole CHO-kl cells over-expressing rNTS2. To be noted: for Ki: competition with 125I-NT, ± SEM, read-out: 125I-NT Binding NTS2 Ki; for NTS2/NTS1 selectivity ratio: ratio of 125I-NT binding Ki at NTS1 and NTS2; for selectivity for NTS2 (versus NTS1): relative binding affinities at NTS1 and NTS2. Here is the method: (§1) The binding affinities of the test compounds for the rNTS1 and rNTS2 receptors listed in Tables 1 through 4 were determined using previously reported competitive binding assays^49. […] The cells used in the binding assay were CHO-kl cells (American Type Culture Collection) engineered to over-express either the rNTS1 or rNTS2 receptor. Measures of functional agonism and antagonism were obtained by measuring changes in intensity of a calcium-sensitive fluorescent dye as an indirect measure of changes in internal calcium concentrations. These measurements were performed using a FLIPR Tetra (NTS2) or a FlexStation II plate reader for NTS1 (Molecular Devices) and were analyzed using GraphPad Prism software.
Briefly, cells were plated at 100,000 cells/well in 24-well plates in complete DMEM/F12 medium supplemented with 10% fetal bovine serum, 100 units of penicillin/mL, 100 μg of streptomycin/mL, 0.1 mg/mL of normocin, and 250 μg/mL geneticin. Cells were incubated at 37° C. with 5% CO2 and 95% humidity for 48 hrs. […] Cells were washed twice in Earle's buffer, extracted in 1 ml 0.1N NaOH and counted in a Packard Cobra II Gamma Counter for 1 minute.
(§2) To determine EC50, IC50, and Ke values, data were fit to a three-parameter logistic equation using GraphPad Prism software. Ki values for radioligand binding assays were determined from ICso values using the equation of Cheng and Prusoff. All data are from at least three independent experiments run in duplicate wells.

For data set [2], the target named is T2, rNTS1 receptor (Rattus norvegicus, UniProt P20789).
T2 construct: expressed in transfected cells
Kind of data set: 125I-NT competitive binding assay, whole CHO-kl cells over-expressing rNTS1. To be noted: competition with 125I-NT, read-out: NTS1 Ki. Here is the method: The binding affinities of the test compounds for the rNTS1 and rNTS2 receptors listed in Tables 1 through 4 were determined using previously reported competitive binding assays^49. The NTS1 and 2 receptors were labeled using ^125I-NT. The cells used in the binding assay were CHO-kl cells (American Type Culture Collection) engineered to over-express either the rNTS1 or rNTS2 receptor. Measures of functional agonism and antagonism were obtained by measuring changes in intensity of a calcium-sensitive fluorescent dye as an indirect measure of changes in internal calcium concentrations. These measurements were performed using a FLIPR Tetra (NTS2) or a FlexStation II plate reader for NTS1 (Molecular Devices) and were analyzed using GraphPad Prism software. Antagonism was measured as inhibition of NT-induced calcium release (NTS1) or inhibition of SR142948 (5b)-induced calcium release (NTS2).
Briefly, cells were plated at 100,000 cells/well in 24-well plates in complete DMEM/F12 medium supplemented with 10% fetal bovine serum, 100 units of penicillin/mL, 100 μg of streptomycin/mL, 0.1 mg/mL of normocin, and 250 μg/mL geneticin. Cells were incubated at 37° C. with 5% CO2 and 95% humidity for 48 hrs. Cells were then equilibrated for 10 minutes in Earle's buffer (130 mM NaCl, 5 mM KCl, 1.8 mM CaCl2, 0.8 mM MgCl2, and 20 mM HEPES, pH 7.4) supplemented with 0.1% BSA and 0.1% glucose, and then incubated with or without 10 nM test compound in 0.1 nM ^125I-NT at 37° C. for 30 min. Cells were washed twice in Earle's buffer, extracted in 1 ml 0.1N NaOH and counted in a Packard Cobra II Gamma Counter for 1 minute.
as §2

Data set [3] concerns the target T1, rNTS2 receptor. Kind of data set: Calcium mobilization assay for NTS2 receptor (FLIPR Tetra). In kind it is cell-based. To be noted: FLIPR assay, ± SEM; for NTS2 Emax % of 5b: calcium release relative to 5b; for EC50: compound induced calcium release, CHO-kl-rNTS2 cells. Here is the method: as §1
CHO-kl-rNTS2 cells were maintained in DMEM/F12 supplemented with 10% FBS, pen/strep, 100 μg/ml normocin, and 400 μg/ml geneticin. For calcium mobilization assays, cells were plated at 25,000 cells/well in black, clear-bottom 96-well plates 24 hrs before the assay and incubated at 37° C., 5% CO2. 100 μl reconstituted Calcium 5 dye (Molecular Devices, diluted 1:20 in assay buffer (1×HBSS, 20 mM HEPES, 2.5 mM Probenicid, pH 7.4)) was added per well and plates were incubated for 45 min at 37° C., 5% CO2. […] Full-log serial dilutions of the test compounds were made at 10× the desired final concentration in 1% DMSO assay buffer and warmed to 37° C. After the pre-treatment incubation, fluorescence intensity was measured on a FLIPR Tetra fluorometric imaging plate reader (Molecular Devices). Relative Fluorescence Units (RFUs) were measured every second for 100 seconds (14 readings before compound addition to establish baseline fluorescence, 85 after) Exposure time 0.53 s, Gain=2000, Excitation intensity=30%, Gate open=10%. For antagonist assays, 1/10 volume of 10×concentration of the test compound dilutions in 10% DMSO in assay buffer was added to cells in lieu of the 10% DMSO only in assay buffer for the pre-treatment.
as §2

Data set [4] has as its target T2, rNTS1 receptor. The data set can be described thus: Calcium mobilization assay for NTS1 receptor (FLIPR assay, FlexStation II). In kind it is cell-based. To be noted: for Kb: antagonism of NT induced calcium release, ± SEM, read-out: NTS1 Ke. How it is done: as §1
CHO-kl-rNTS1 cells were maintained in DMEM/F12 medium supplemented with 10% fetal bovine serum (Gibco), 100 U/ml penicillin/100 ug/ml streptomycin, 100 ug/ml normocin (Invivogen), and 250 ug/ml geneticin. For calcium mobilization assays, cells were plated at 30,000 cells/well in black, clear-bottom 96-well plates 24 hrs before the assay and incubated at 37° C., 5% CO2. Prior to the assay, Calcium 5 dye (Molecular Devices) was reconstituted according to manufacturer instructions. The reconstituted dye was diluted 1:40 in assay buffer (lx HBSS, 20 mM HEPES, and 2.5 mM Probenicid (Sigma), pH 7.4). Growth media was removed and 200 ul of this diluted dye was added to each well. Plates were incubated for 45 min at 37° C., 5% CO2 after dye addition. […] Full-log serial dilutions of the test compounds were made at 10× the desired final concentration in 1% DMSO assay buffer and warmed to 37° C. After the pre-treatment incubation, fluorescence intensity was measured on a FlexStation II fluorometric imaging plate reader (Molecular Devices). Relative fluorescence units (RFU) were measured before (20 readings) and after (40 readings) the agonist compound addition for a total 60 second read time (Excitation=485 nm, Emission=525 nm, cutoff=515 nm). For antagonist assays, cells were treated with Calcium dye for 45 min at 37° C., 5% CO2 as with the agonist assays. Then the test antagonist compounds were added in 1% DMSO in assay buffer and the plate was incubated for 15 min at 37° C., 5% CO2.
as §2

The next data set deals with NTS2 versus NTS1. As to conditions: literature report; cited from earlier work.
The conditions of data set [5]: literature report; cited from earlier work.

“And” between values parts separate entries of the source, which are not always exact repeats. Equal entries are not always repeated. Where two headings read alike, the source gives them in different places.

T2 sequence (P20789 whole entry): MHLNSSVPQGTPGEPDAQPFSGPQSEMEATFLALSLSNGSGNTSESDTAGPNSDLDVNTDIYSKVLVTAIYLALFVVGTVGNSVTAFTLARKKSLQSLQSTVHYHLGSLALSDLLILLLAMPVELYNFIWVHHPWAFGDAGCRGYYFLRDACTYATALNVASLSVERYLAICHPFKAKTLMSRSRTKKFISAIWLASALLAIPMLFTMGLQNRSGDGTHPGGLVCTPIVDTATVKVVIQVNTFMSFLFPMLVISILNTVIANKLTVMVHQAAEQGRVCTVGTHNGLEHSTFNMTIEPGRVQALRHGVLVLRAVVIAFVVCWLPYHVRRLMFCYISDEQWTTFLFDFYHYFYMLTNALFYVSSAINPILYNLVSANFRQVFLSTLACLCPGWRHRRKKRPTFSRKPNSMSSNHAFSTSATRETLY

In the case of `COc1ccccc1-c1cc(C(=O)NC2(C(=O)O)CCCCC2)nn1-c1ccc(F)cc1` [7b, 1-({[1-(4-Fluorophenyl)-5-(2-methoxyphenyl)-1H-pyrazol-3-yl]carbonyl}amino)cyclo-hexane carboxylic Acid], on rNTS2 receptor [1], the Ki turned out to be 153 ± 10 nM, the NTS2/NTS1 selectivity ratio turned out to be 161 and the “selectivity for NTS2 (versus NTS1)” value is reported as 161 fold. Moreover, at rNTS1 receptor [2] (bound given in uM), the Ki is over 25 µM. Further, at rNTS2 receptor [3], the “NTS2 Emax % of 5b” value is reported as 7 ± 2 % of 5b and the 50% effective concentration (EC50) is 12 ± 6 nM.

`COc1ccccc1-c1cc(C(=O)N[C@H](C(=O)O)C2CCCCC2)nn1-c1cccc2ccccc12` [25b, (2S)-Cyclohexyl({[5-(2-methoxyphenyl)-1-naphthalen-1-yl-1H-pyrazol-3-yl]carbonyl}amino) ethanoic Acid]: the Ki on rNTS2 receptor [1] came to 2690 ± 639 nM. In addition, the Kb on rNTS1 receptor [4] worked out at 1400 ± 330 nM. In addition, at rNTS2 receptor [3], the “NTS2 Emax % of 5b” value is given as 18 ± 2 % of 5b and the concentration for a half-maximal effect (EC50) stood at 229 ± 8 nM.

Turning to `COc1cccc(OC)c1-c1cc(C(=O)NC2(C(=O)O)CCCCC2)nn1-c1cccc2ccccc12` [26b, 1-({[5-(2,6-Dimethoxyphenyl)-1-naphthalen-1-yl-1H-pyrazol-3-yl]carbonyl}amino)cyclohexane-carboxylic Acid], the Ki on rNTS2 receptor [1] came to 116 ± 39 nM. For the same compound, the Kb at rNTS1 receptor [4] was 230 ± 79 nM. On rNTS2 receptor [3], the “NTS2 Emax % of 5b” value is 35 % of 5b and 35 ± 1 % of 5b; the concentration giving a half-maximal response (EC50) was determined as 18 ± 1.6 nM.

`COc1ccccc1-c1cc(C(=O)NC2(C(=O)O)CCCCC2)nn1-c1cccc2ccccc12` [27b, 1-({[5-(2-Methoxyphenyl)-1-naphthalen-1-yl-1H-pyrazol-3-yl]carbonyl}amino)cyclohexane-carboxylic Acid]: the inhibition constant Ki on rNTS2 receptor [1] is 694 ± 178 nM. For the same compound, the Kb on rNTS1 receptor [4] is 7380 ± 1130 nM. Besides, on rNTS2 receptor [3], the “NTS2 Emax % of 5b” value is 18 % of 5b and 18 ± 2 % of 5b; the concentration for a half-maximal effect (EC50) was 108 ± 8 nM.

In the case of `COc1cccc(OC)c1-c1cc(C(=O)N[C@H](C(=O)O)C2CCCCC2)nn1-c1ccc(F)cc1` [28b, (2S)-Cyclohexyl({[5-(2,6-dimethoxyphenyl)-1-(4-fluorophenyl)-1H-pyrazol-3-yl]carbonyl}amino)ethanoic Acid], the Ki at rNTS2 receptor [1] came to 622 ± 245 nM. The Kb on rNTS1 receptor [4] came to 3340 ± 549 nM. At rNTS2 receptor [3], the “NTS2 Emax % of 5b” value is reported as 22 ± 5 % of 5b and the EC50 was 271 ± 24 nM.

With `COc1cccc(OC)c1-c1cc(C(=O)NC2(C(=O)O)CCCCC2)nn1-c1ccc(F)cc1` [29b, 1-({[5-(2,6-Dimethoxyphenyl)-1-(4-fluorophenyl)-1H-pyrazol-3-yl]carbonyl}amino)cyclohexane-carboxylic Acid], at rNTS2 receptor [1], the Ki was 140 ± 29 nM, the NTS2/NTS1 selectivity ratio is given as 23 and the “selectivity for NTS2 (versus NTS1)” value is reported as 23 fold. On rNTS1 receptor [2] (± SEM), the Ki worked out at 3.21 ± 0.879 µM. Further, on rNTS2 receptor [3], the “NTS2 Emax % of 5b” value was 12 ± 0.5 % of 5b and the EC50 was 19 ± 3 nM.

Consider `C[C@@H]1CN([C@H]2CC[C@](C#N)(c3ccc(F)cc3)CC2)CC[C@]1(C(=O)O)c1ccccc1` [compound 6, Levocabastine, reference compound], for which the inhibition constant (Ki) at rNTS2 receptor [1] worked out at 33 nM. Further, the “activity in NTS1 FLIPR assay” value at rNTS1 receptor [4] (agonist and antagonist mode versus NT) is “neither agonist nor antagonist activity”. Also, on rNTS2 receptor [3], the “NTS2 Emax % of 5b” value is 16 % of 5b and 16 ± 3 % of 5b; the concentration for a half-maximal effect (EC50) amounted to 28 nM.

Consider `COc1cccc(OC)c1-c1cc(C(=O)NC2(C(=O)O)C3CC4CC(C3)CC2C4)nn1-c1ccc(F)cc1` (stereo not shown) [compound 30, 2-({[5-(2,6-Dimethoxyphenyl)-1-(4-fluorophenyl)-1H-pyrazol-3-yl]carbonyl}amino) tricyclo[3.3.1.13,7]decane-2-carboxylic Acid], for which the inhibitory constant (Ki) on rNTS2 receptor [1] is 110 ± 29 nM. Also, the Kb at rNTS1 receptor [4] was determined as 191 ± 47 nM. At rNTS2 receptor [3], the “NTS2 Emax % of 5b” value was 34 % of 5b and 34 ± 5 % of 5b; the EC50 came out at 68 nM.

Take `COc1ccccc1-c1cc(C(=O)NC2(C(=O)O)C3CC4CC(C3)CC2C4)nn1-c1ccc(F)cc1` (stereo not shown) [compound 31, 2-({[1-(4-fluorophenyl)-5-(2-methoxyphenyl)-1H-pyrazol-3-yl]carbonyl}amino)tricyclo[3.3.1.13,7]decane-2-carboxylic acid]: on rNTS2 receptor [1], the inhibition constant (Ki) amounted to 23 ± 5 nM and the NTS2/NTS1 selectivity ratio came to 188. Further, the Kb on rNTS1 receptor [4] came out at 3810 ± 422 nM. The Ki on rNTS1 receptor [2] (± SEM) came out at 4.33 ± 0.656 µM. Moreover, on rNTS2 receptor [3], the “NTS2 Emax % of 5b” value is reported as 42 ± 12 % of 5b and the concentration giving a half-maximal response (EC50) came to 138 ± 55 nM.

For the compound “(N^αMe)Arg-Lys-Pro-D-3,1-Nal-tLeu-Leu [compound 3]”, in the data set on NTS2 versus NTS1, the “selectivity for NTS2 (versus NTS1)” value is given as over 100 fold.

With “(N^αMe)Arg-Lys-Pro-N-homo-Tyr-Ile-Leu [4b]”, the “selectivity for NTS2 (versus NTS1)” value in the data set on NTS2 versus NTS1 is reported as 22,000 fold. Further, the plasma stability entry in data set [5] is “excellent plasma stability”.

For Arg-Arg-Pro-N-homo-Tyr-Ile-Leu [4a], in the data set on NTS2 versus NTS1, the “selectivity for NTS2 (versus NTS1)” value is recorded as 12,000 fold.
